Measured values taken from PubChem BioAssay AID2060599 (Molecular Pharmacology Branch, DTP, NCI, 2025).

System: 817829-284-R-J1-PDC complex spheroids, viability
Assay: Anticancer human tumor 817829-284-R-J1-PDC patient-derived colon adenocarcinoma cell line growth inhibition [CLK]
Settings: for IC50: curve of first compound; for viability, T/C: stronger effect = lower value
Procedure, shortened: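 Patient-derived tumor cells grown as complex spheroids with HUVEC endothelial cells and mesenchymal stem cells, treated with drug combinations. Concentrations descend in half-log steps from near clinical Cmax, or from 10 microM if Cmax unknown.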
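Note: spheroids exposed to the agents for seven days before readout.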

In the case of `C=CC(=O)Nc1cc(Nc2nccc(-c3cn(C)c4ccccc34)n2)c(OC)cc1N(C)CCN(C)C` + CN1CCN(c2cc(C(=O)Nc3cc4cc(-c5cnn(C)c5)ccc4cn3)ccn2)CC1, the IC50 (second compound 0.0316 µM) is reported as > 300 nM, the IC50 (second compound 0.1 µM) is reported as < 0.949 nM and the IC50 (second compound 0.316 µM) is reported as < 0.949 nM. For the same molecule, the IC50 (second compound 1 µM) was < 0.949 nM, the IC50 (second compound 3.16 µM) was < 0.949 nM and the IC50 (second compound 10 µM) was < 0.949 nM. The viability, T/C (second compound 0.0316 µM, first compound 0.000949 µM) was 51.7%, the viability, T/C (second compound 0.0316 µM, first compound 0.003 µM) was 48.2% and the viability, T/C (second compound 0.0316 µM, first compound 0.00949 µM) was 57.6%. For the same molecule, the viability, T/C (second compound 0.0316 µM, first compound 0.03 µM) was 58.5%, the viability, T/C (second compound 0.0316 µM, first compound 0.0949 µM) was 67.9% and the viability, T/C (second compound 0.0316 µM, first compound 0.3 µM) was 41.1%. The viability, T/C (second compound 0.1 µM, first compound 0.000949 µM) was 16.4%, the viability, T/C (second compound 0.1 µM, first compound 0.003 µM) was 17.8% and the viability, T/C (second compound 0.1 µM, first compound 0.00949 µM) was 16.3%. The viability, T/C (second compound 0.1 µM, first compound 0.03 µM) was 19.6%, the viability, T/C (second compound 0.1 µM, first compound 0.0949 µM) was 14.4% and the viability, T/C (second compound 0.1 µM, first compound 0.3 µM) was 10.9%. It also gave a viability, T/C (second compound 0.316 µM, first compound 0.000949 µM) of 1.39%, a viability, T/C (second compound 0.316 µM, first compound 0.003 µM) of 1.52% and a viability, T/C (second compound 0.316 µM, first compound 0.00949 µM) of 1.82%. It also gave a viability, T/C (second compound 0.316 µM, first compound 0.03 µM) of 1.58%, a viability, T/C (second compound 0.316 µM, first compound 0.0949 µM) of 1.13% and a viability, T/C (second compound 0.316 µM, first compound 0.3 µM) of 0.72%. For the same molecule, the viability, T/C (second compound 1 µM, first compound 0.000949 µM) was 0.08%, the viability, T/C (second compound 1 µM, first compound 0.003 µM) was 0.12% and the viability, T/C (second compound 1 µM, first compound 0.00949 µM) was 0.1%. It also gave a viability, T/C (second compound 1 µM, first compound 0.03 µM) of 0.09%, a viability, T/C (second compound 1 µM, first compound 0.0949 µM) of 0.17% and a viability, T/C (second compound 1 µM, first compound 0.3 µM) of 0.09%. It also gave a viability, T/C (second compound 3.16 µM, first compound 0.000949 µM) of 0.14%, a viability, T/C (second compound 3.16 µM, first compound 0.003 µM) of 0.16% and a viability, T/C (second compound 3.16 µM, first compound 0.00949 µM) of 0.18%. For the same molecule, the viability, T/C (second compound 3.16 µM, first compound 0.03 µM) was 0.12%, the viability, T/C (second compound 3.16 µM, first compound 0.0949 µM) was 0.1% and the viability, T/C (second compound 3.16 µM, first compound 0.3 µM) was 0.1%. It also gave a viability, T/C (second compound 10 µM, first compound 0.000949 µM) of 0.14%, a viability, T/C (second compound 10 µM, first compound 0.003 µM) of 0.13% and a viability, T/C (second compound 10 µM, first compound 0.00949 µM) of 0.13%. The viability, T/C (second compound 10 µM, first compound 0.03 µM) was 0.13%, the viability, T/C (second compound 10 µM, first compound 0.0949 µM) was 0.15% and the viability, T/C (second compound 10 µM, first compound 0.3 µM) was 0.13%.

`COc1ccc([C@@H](O)c2cc(-c3ncnc4cc(N5CCOCC5)ccc34)c(F)cc2Cl)nn1` + CN1CCN(c2cc(C(=O)Nc3cc4cc(-c5cnn(C)c5)ccc4cn3)ccn2)CC1 was tested, and the IC50 (second compound 0.0316 µM) was 429 nM, the IC50 (second compound 0.1 µM) was < 31.6 nM and the IC50 (second compound 0.316 µM) was < 31.6 nM. The IC50 (second compound 1 µM) was < 31.6 nM, the IC50 (second compound 3.16 µM) was < 31.6 nM and the IC50 (second compound 10 µM) was < 31.6 nM. The viability, T/C (second compound 0.0316 µM, first compound 0.0316 µM) was 79.8%, the viability, T/C (second compound 0.0316 µM, first compound 0.1 µM) was 69% and the viability, T/C (second compound 0.0316 µM, first compound 0.316 µM) was 59.6%. The viability, T/C (second compound 0.0316 µM, first compound 1 µM) was 29.3%, the viability, T/C (second compound 0.0316 µM, first compound 3.16 µM) was 19.4% and the viability, T/C (second compound 0.0316 µM, first compound 10 µM) was 10.3%. The viability, T/C (second compound 0.1 µM, first compound 0.0316 µM) was 15.4%, the viability, T/C (second compound 0.1 µM, first compound 0.1 µM) was 17.1% and the viability, T/C (second compound 0.1 µM, first compound 0.316 µM) was 14.9%. It also gave a viability, T/C (second compound 0.1 µM, first compound 1 µM) of 13%, a viability, T/C (second compound 0.1 µM, first compound 3.16 µM) of 11.8% and a viability, T/C (second compound 0.1 µM, first compound 10 µM) of 6.42%. For the same molecule, the viability, T/C (second compound 0.316 µM, first compound 0.0316 µM) was 1.6%, the viability, T/C (second compound 0.316 µM, first compound 0.1 µM) was 2.02% and the viability, T/C (second compound 0.316 µM, first compound 0.316 µM) was 2.05%. For the same molecule, the viability, T/C (second compound 0.316 µM, first compound 1 µM) was 1.33%, the viability, T/C (second compound 0.316 µM, first compound 3.16 µM) was 1% and the viability, T/C (second compound 0.316 µM, first compound 10 µM) was 0.54%. For the same molecule, the viability, T/C (second compound 1 µM, first compound 0.0316 µM) was 0.08%, the viability, T/C (second compound 1 µM, first compound 0.1 µM) was 0.13% and the viability, T/C (second compound 1 µM, first compound 0.316 µM) was 0.1%. It also gave a viability, T/C (second compound 1 µM, first compound 1 µM) of 0.06%, a viability, T/C (second compound 1 µM, first compound 3.16 µM) of 0.1% and a viability, T/C (second compound 1 µM, first compound 10 µM) of 0.07%. It also gave a viability, T/C (second compound 3.16 µM, first compound 0.0316 µM) of 0.14%, a viability, T/C (second compound 3.16 µM, first compound 0.1 µM) of 0.14% and a viability, T/C (second compound 3.16 µM, first compound 0.316 µM) of 0.19%. For the same molecule, the viability, T/C (second compound 3.16 µM, first compound 1 µM) was 0.11%, the viability, T/C (second compound 3.16 µM, first compound 3.16 µM) was 0.13% and the viability, T/C (second compound 3.16 µM, first compound 10 µM) was 0.16%. For the same molecule, the viability, T/C (second compound 10 µM, first compound 0.0316 µM) was 0.09%, the viability, T/C (second compound 10 µM, first compound 0.1 µM) was 0.06% and the viability, T/C (second compound 10 µM, first compound 0.316 µM) was 0.13%. It also gave a viability, T/C (second compound 10 µM, first compound 1 µM) of 0.08%, a viability, T/C (second compound 10 µM, first compound 3.16 µM) of 0.15% and a viability, T/C (second compound 10 µM, first compound 10 µM) of 0.12%.
